# Reference: US4338331A, “Isoindoline derivative and a therapeutic composition thereof” (priority 1979, dated 1982)
# Several values for one entry are separate records, joined by “and”; a condition that tells them apart may be missing. Equal values may be shown once.
# Key:
# Format in all cases: in vivo, Wistar rat
# male rats = assay: Diuretic and saluretic activity: excretion of a load of distilled water (TABLE 2); settings: 5 mg/kg oral + aqueous load
# Protocol: (§1) Both the CM/1 and the Indapamide were administered orally after being suitably dissolved in the following solvent:
# (§2) The controls were treated with an equal volume of solvent. The experiments were carried out on animals which had regularly fasted for at least 12 hours, but had free access to water.
# (§3) The sodium and potassium in the urine were determined by a photometric method.
# The rats were then immediately placed in individual metabolic cages. The urine was collected over 4 hours. The quantity has been expressed in the usual manner as a percentage of the volume administered.
# Sodium and potassium were also analysed, and these have been expressed as mEq/4h.
# After two days, in the preceding manner, the same rats were treated with Indapamide, and after a further two days with the product CM/1. In the interval between one test and the other, the rats were housed and fed in the normal manner. The dose used for both compounds was the same as previously, i.e. 5 mg/kg.
# female Wistar rats [1] = assay: Diuretic and saluretic activity: excretion of an aqueous saline load (TABLE 1); settings: 5 mg/kg oral
# Protocol: as §1, §2, §3
# The effect on the excretion of an aqueous saline load was first checked. 18 female Wistar rats were used divided into three groups, one of 8 and two of 5, and these were treated in the following manner:
# GROUP A: CONTROLS 1 ml of solvent made up to 50 ml with 0.9% sodium chloride solution, administered by gastric probe, per kg of body weight (=50 ml/kg in terms of volume);
# GROUP B: INDAPAMIDE 5 mg/kg in 1 ml/kg of solvent made up to 50 ml/kg with sodium chloride solution, administered by gastric probe;
# GROUP C: CM/1,5 mg/kg using the same method as for the Indapamide.
# The rats were placed immediately in individual metabolic cages for collecting the urine during the three hours subsequent to the load. The quantity of urine excreted is given as a percentage of the quantity administered. The sodium and potassium are expressed in mEq/3h.
# Values of P less than 0.05 have been considered significant.
# female Wistar rats [2] = assay: Effect on spontaneous diuresis (TABLE 3); settings: 5 mg/kg oral; for Excreted sodium/potassium ratio: 12 h; for Potassium excretion / Sodium excretion: spontaneous diuresis
# Protocol: These investigations were carried out on Wistar rats of both sexes, having a body weight which is specified in each case in the relative tables, which compare the results with Indapamide. Both the CM/1 and the Indapamide were administered orally after being suitably dissolved in the following solvent:
# as §2, §3
# Finally, the effect on the new product of spontaneous diuresis was determined.
# These investigations were carried out on 15 female Wistar rats having a body weight varying from 230 to 260 g, and divided at random into three groups of 5. The animals were kept in individual metabolic cages overnight for a period of 12 hours in order to collect the urine spontaneously excreted. One group was treated as usual with 1 ml/kg of solvent by means of a gastric probe, and the other two were treated respectively with 5 mg/kg of Indapamide and 5 mg/kg of CM/1. The sodium and potassium were analysed as usual in the urine collected.
# [3] = saline load, mean ± standard error, n = 5
compound,measurement,setting,value
"CC1Cc2ccccc2N1NC(=O)c1ccc(Cl)c(S(N)(=O)=O)c1 (stereo not drawn) [Indapamide, N-(3-sulphamyl-4-chlorobenzamido)-2-methylindoline, reference compound]",diuretic and saluretic action,male rats,significant diuretic and saluretic action
same,RATIO Na/K (sodium to potassium excreted),"male rats; 4 h, average",1.6764
same,Cumulative percent excretion at 1 hour from load,male rats; individual rats,25.8% and 35.7% and 0.0% and 27.6% and 51.6%
same,Cumulative percent excretion at 2 hours from load,male rats; individual rats,83.9% and 92.8% and 42.9% and 82.8% and 101.7%
same,Cumulative percent excretion at 3 hours from load,male rats; individual rats,116.1% and 107.2% and 85.8% and 110.4% and 121.1%
same,Cumulative percent excretion at 4 hours from load,male rats; individual rats,138.7% and 107.2% and 114.4% and 110.4% and 140.5%
same,Potassium excretion,male rats; individual rats,0.00998 mEq/4h and 0.00543 mEq/4h and 0.00814 mEq/4h and 0.00692 mEq/4h and 0.01579 mEq/4h
same,Sodium excretion,male rats; individual rats,0.01808 mEq/4h and 0.00771 mEq/4h and 0.01403 mEq/4h and 0.01077 mEq/4h and 0.02694 mEq/4h
same,Cumulative percent excretion at 1 hour from load,male rats; mean of 5 rats,28.14%
same,Cumulative percent excretion at 2 hours from load,male rats; mean of 5 rats,80.82%
same,Cumulative percent excretion at 3 hours from load,male rats; mean of 5 rats,108.12%
same,Cumulative percent excretion at 4 hours from load,male rats; mean of 5 rats,122.24 ± 4.47%
same,Potassium excretion,male rats; mean of 5 rats,0.009252 mEq/4h
same,Sodium excretion,male rats; mean of 5 rats,0.01551 mEq/4h
same,"Urine excretion of load in percent of quantity administered (cumulative excretion), 1 hour",female Wistar rats [1]; individual rats,16.7% and 12.5% and 8.7% and 6.7%
same,"Urine excretion of load in percent of quantity administered (cumulative excretion), 2 hours",female Wistar rats [1]; individual rats,50.0% and 37.5% and 26.1% and 30.8% and 52.2%
same,"Urine excretion of load in percent of quantity administered (cumulative excretion), 3 hours",female Wistar rats [1]; individual rats,83.3% and 81.2% and 65.2% and 69.2% and 100.0%
same,"Urine excretion of load in percent of quantity administered (cumulative excretion), 1 hour","female Wistar rats [1]; mean ± standard error, n = 5",10.66 ± 1.77%
same,"Urine excretion of load in percent of quantity administered (cumulative excretion), 2 hours","female Wistar rats [1]; mean ± standard error, n = 5",39.32 ± 5.15%
same,diuretic and saluretic effect,female Wistar rats [1]; relative to the controls,significant diuretic and saluretic effect relative to the controls
same,ratio of the sodium to the potassium excreted during the 3 hours,female Wistar rats [1]; saline load,4.48
same,Potassium excretion,"female Wistar rats [1]; saline load, individual rats",0.36 mEq/3h and 0.38 mEq/3h and 0.28 mEq/3h and 0.31 mEq/3h and 0.33 mEq/3h
same,Sodium excretion,"female Wistar rats [1]; saline load, individual rats",1.50 mEg/3h and 1.45 mEg/3h and 1.33 mEg/3h and 1.61 mEg/3h and 1.55 mEg/3h
same,Potassium excretion,female Wistar rats [1]; [3],0.332 ± 0.0177 mEq/3h
same,Sodium excretion,female Wistar rats [1]; [3],1.488 ± 0.047 mEg/3h
same,excreted sodium and potassium,female Wistar rats [1]; versus controls,significantly higher than the controls
same,diuretic action,female Wistar rats [2],marked diuretic action
same,sodium and potassium excretion,female Wistar rats [2],increased
same,Excreted sodium/potassium ratio,female Wistar rats [2]; individual rats,1.170 and 1.417 and 1.803 and 1.346 and 1.555
same,Excreted sodium/potassium ratio,"female Wistar rats [2]; mean ± standard error, n = 5",1.4582 ± 0.106
same,ml of urine collected in 12 hours,female Wistar rats [2]; individual rats,11.5 mL and 13.7 mL and 18.6 mL and 14.5 mL and 15.5 mL
same,ml of urine collected in 12 hours,"female Wistar rats [2]; mean ± standard error, n = 5",14.76 ± 1.16 mL
same,Potassium excretion,female Wistar rats [2]; individual rats,4.560 mEq/12h and 3.356 mEq/12h and 3.760 mEq/12h and 5.776 mEq/12h and 4.352 mEq/12h
same,Sodium excretion,female Wistar rats [2]; individual rats,5.335 mEq/12h and 4.756 mEq/12h and 6.780 mEq/12h and 7.775 mEq/12h and 6.767 mEq/12h
same,Potassium excretion,"female Wistar rats [2]; mean ± standard error, n = 5",4.3608 ± 0.413 mEq/12h
same,Sodium excretion,"female Wistar rats [2]; mean ± standard error, n = 5",6.2826 ± 0.544 mEq/12h
